As a reminder, the melting point is the temperature, or range, at which the solid turns liquid.

The results in this text go back to patent publication US6930131B2, “Aryl substituted 3-ethoxy phenyl trifluoromethane sulfonamides for the treatment of non-insulin dependent diabetes mellitus (NIDDM)” (Wyeth, priority 2002, dated 2005).

In turn, `COc1ccc(-c2ccc(COCCc3cccc(NS(=O)(=O)C(F)(F)F)c3)cc2)cc1` [Example 4, C,C,C-Trifluoro-N-{3-[2-(4′-methoxy-biphenyl-4-ylmethoxy)-ethyl]-phenyl}-methanesulfonamide] registered a melting point of 96 to 98 °C.

For `O=S(=O)(Nc1cccc(CCOCc2ccc(-c3cccc(Cl)c3)cc2)c1)C(F)(F)F` [Example 5, N-{3-[2-(3′-Chloro-biphenyl-4-ylmethoxy)-ethyl]-phenyl}-C,C,C-trifluoromethane sulfonamide], the melting point is 105 to 107 °C.

In turn, `O=S(=O)(Nc1cccc(CCOCc2ccc(-c3ccccn3)cc2)c1)C(F)(F)F` [Example 8, C,C,C-Trifluoro-N-{3-[2-(4-pyridin-2-yl-benzyloxy)-ethyl]-phenyl}-methane sulfonamide] displayed a melting point of 95 to 96 °C.

The compound `O=S(=O)(Nc1cccc(CCOCc2ccc(-c3ccc(F)cc3)cc2F)c1)C(F)(F)F` [Example 10, N-{3-[2-(3,4′-Difluoro-biphenyl-4-ylmethoxy)-ethyl]-phenyl}-C,C,C-trifluoro-methanesulfonamide] gave a melting point of 65 to 67 °C.

In turn, `O=S(=O)(Nc1cccc(CCOCc2ccc(-c3ccc(C(F)(F)F)cc3)cc2F)c1)C(F)(F)F` [Example 14, C,C,C-Trifluoro-N-{3-[2-(3-fluoro-4′-trifluoromethyl-biphenyl-4-yl-methoxy)-ethyl]-phenyl}-methanesulfonamide] registered a melting point of 121 to 122 °C.

As to `O=S(=O)(Nc1cccc(CCOCc2ccc(-c3ccc(Cl)cc3Cl)cc2F)c1)C(F)(F)F` [Example 15, N-{3-[2-(2′,4′-Dichloro-3-fluoro-biphenyl-4-ylmethoxy)-ethyl]-phenyl}-C,C,C-trifluoro-methanesulfonamide], the melting point lay in the range of 65 to 66 °C.

Regarding `Cc1cccc(-c2ccc(COCCc3cccc(NS(=O)(=O)C(F)(F)F)c3)c(F)c2)c1` [Example 16, C,C,C-Trifluoro-N-{3-[2-(3-fluoro-3′-methyl-biphenyl-4-yl-methoxy)-ethyl]-phenyl}-methanesulfonamide], the melting point lay in the range of 60 to 61 °C.

`O=S(=O)(Nc1cccc(CCOCc2ccc(-c3cccc(C(F)(F)F)c3)cc2F)c1)C(F)(F)F` [Example 17, C,C,C-Trifluoro-N-{3-[2-(3-fluoro-3′-trifluoromethyl-biphenyl-4-yl-methoxy)-ethyl]-phenyl}-methanesulfonamide]: the melting point fell in the range of 60 to 61 °C.

In turn, `O=S(=O)(Nc1cccc(CCOCc2ccc(-c3ccc(OC(F)(F)F)cc3)cc2F)c1)C(F)(F)F` [Example 18, C,C,C-Trifluoro-N-{3-[2-(3-fluoro-4′-trifluoromethoxy-biphenyl-4-yl-methoxy)-ethyl]-phenyl}-methanesulfonamide] yielded a melting point of 114 to 115 °C.

On to `COc1cccc(-c2ccc(COCCc3cccc(NS(=O)(=O)C(F)(F)F)c3)c(F)c2)c1` [Example 20, C,C,C-Trifluoro-N-{3-[2-(3-fluoro-3′-methoxy-biphenyl-4-yl-methoxy)ethyl]-phenyl}-methanesulfonamide], for which the melting point was in the range of 80 to 82 °C.

Consider `O=S(=O)(Nc1ccc(CCOCc2ccccc2-c2ccccc2)cc1)C(F)(F)F` [Example 27, N-{4-[2-(Biphenyl-2-ylmethoxy)-ethyl]-phenyl}-C,C,C-trifluoromethanesulfonamide], for which the melting point was in the range of 79 to 81 °C.

Compound `COc1ccc(-c2cccc(COCCc3cccc(NS(=O)(=O)C(F)(F)F)c3)c2)cc1` [Example 28, C,C,C-Trifluoro-N-{3-[2-(4′-methoxy-biphenyl-3-ylmethoxy)-ethyl]-phenyl}-methanesulfonamide] showed a melting point of 88 to 90 °C.

Take `O=S(=O)(Nc1cccc(CCOCc2cc(-c3ccc(F)cc3)ccc2Cl)c1)C(F)(F)F` [Example 29, N-{3-[2-(4-Chloro-4′-fluoro-biphenyl-3-ylmethoxy)-ethyl]-phenyl)-C,C,C-trifluoro-methanesulfonamide]: the melting point was 80 to 82 °C.

As for `COc1ccc(-c2ccc(F)cc2)cc1COCCc1cccc(NS(=O)(=O)C(F)(F)F)c1` [Example 30, N-{3-[2-(4′-Fluoro-4-methoxy-biphenyl-3-ylmethoxy)-ethyl]-phenyl)-C,C,C-trifluoro-methanesulfonamide], the melting point was in the range of 55 to 57 °C.

For the compound `COc1ccc(-c2ccc(COCCc3cccc(NS(=O)(=O)C(F)(F)F)c3)c(F)c2)cc1` [Example 32, N-{3-[2-(3-fluoro-4′-methoxy-biphenyl-4-ylmethoxy)-ethyl]-phenyl)-C,C,C-trifluoromethanesulfonamide], the melting point was in the range of 82 to 84 °C.

The compound `Cc1c(COCc2cccc(-c3nn[nH]n3)c2)cccc1-c1ccccc1` [Example 33, 5-[3-(2-Methyl-biphenyl-3-ylmethoxymethyl)-phenyl]-2H-tetrazole] showed a melting point of 112 to 114 °C.

On to `O=S(=O)(Nc1cccc(CCOCc2cccc(-c3cc(Cl)cc(Cl)c3)c2)c1)C(F)(F)F` [Example 34, N-{3-[2-(3′,5′-Dichloro-biphenyl-3-ylmethoxy)-ethyl]-phenyl)-C,C,C-trifluoro-methanesulfonamide], for which the melting point lay in the range of 52 to 54 °C.

`O=S(=O)(Nc1cccc(CCOCc2ccc(-c3cc(Cl)cc(Cl)c3)cc2)c1)C(F)(F)F` [Example 35, N-{3-[2-(3′,5′-Dichloro-biphenyl-4-ylmethoxy)-ethyl]-phenyl)-C,C,C-trifluoro-methanesulfonamide] gave a melting point of 70 to 72 °C.

`O=S(=O)(Nc1cccc(CCOCc2cccc(-c3ccc(F)cc3)c2)c1)C(F)(F)F` [Example 36, N-{3-[2-(4′-Fluoro-biphenyl-3-ylmethoxy)-ethyl]-phenyl)-C,C,C-trifluoro-methanesulfonamide] yielded a melting point of 48 to 50 °C.

For `O=S(=O)(Nc1cccc(CCOCc2ccc(-c3ccc(F)cc3)cc2)c1)C(F)(F)F` [Example 37, N-{3-[2-(4′-Fluoro-biphenyl-4-ylmethoxy)-ethyl]-phenyl)-C,C,C-trifluoro-methanesulfonamide], the melting point lay in the range of 65 to 67 °C.

As for `NC(=O)Nc1ccc(CCOCc2ccccc2-c2ccccc2)cc1` [Example 38, {4-[2-(Biphenyl-2-ylmethoxy)-ethyl]-phenyl}-urea], the melting point lay in the range of 143 to 144 °C.

With `COc1ccc(-c2cccc(COCCc3cccc(NC(N)=O)c3)c2)cc1` [Example 39, {3-[2-(4′-Methoxy-biphenyl-3-ylmethoxy)-ethyl]-phenyl}-urea], the melting point lay within 87 to 89 °C.

Regarding `COc1ccc(-c2ccc(Cl)cc2)cc1COCCc1cccc(NS(=O)(=O)C(F)(F)F)c1` [Example 40, N-{3-[2-(4′-Chloro-4-methoxy-biphenyl-3-ylmethoxy)-ethyl]-phenyl}-C,C,C-trifluoromethanesulfonamide], the melting point was 99 to 101 °C.

`COc1ccc(-c2ccc(Cl)cc2)cc1COCCc1cccc(NC(N)=O)c1` [Example 41, {3-[2-(4′-Chloro-4-methoxy-biphenyl-3-ylmethoxy)-ethyl]-phenyl}-urea]: the melting point is 155 °C (dec.).

`O=S(=O)(Nc1cccc(CCOCc2csc(-c3ccc(C(F)(F)F)cc3)n2)c1)C(F)(F)F` [Example 52, C,C,C-Trifluoro-N-(3-{2-[2-(4-trifluoromethyl-phenyl)-thiazol-4-ylmethoxy]-ethyl}-phenyl)-methanesulfonamide]: the melting point was in the range of 117 to 119 °C.

`O=S(=O)(Nc1cccc(CCOCc2csc(-c3ccc(C(F)(F)F)cn3)n2)c1)C(F)(F)F` [Example 57, C,C,C-Trifluoro-N-(3-{2-[2-(5-trifluoromethyl-pyridin-2-yl)-thiazol-4-yl-methoxy]ethyl}-phenyl)-methanesulfonamide] showed a melting point of 116 to 117 °C.

Consider `O=S(=O)(Nc1cccc(CCOCc2csc(-c3ccccc3)n2)c1)C(F)(F)F` [Example 58, C,C,C-Trifluoro-N-{3-[2-(2-phenyl-thiazol-4-ylmethoxy)-ethyl]phenyl}-methane sulfonamide], for which the melting point was 112 to 113 °C.

For `COc1ccc(-c2nc(COCCc3cccc(NS(=O)(=O)C(F)(F)F)c3)cs2)cc1` [Example 59, C,C,C-Trifluoro-N-(3-{2-[2-(4-methoxy-phenyl)-thiazol-4-ylmethoxy]-ethyl}-phenyl)-methanesulfonamide], the melting point fell in the range of 112 to 113 °C.

In the case of `O=S(=O)(Nc1cccc(CCOCc2csc(-c3ccccc3Cl)n2)c1)C(F)(F)F` [Example 60, N-(3-{2-[2-(2-Chloro-phenyl)-thiazol-4-ylmethoxy]-ethyl}-phenyl)-C,C,C-trifluoro-methanesulfonamide], the melting point lay in the range of 86 to 87 °C.

`O=S(=O)(Nc1cccc(CCOCc2csc(-c3ccc(OC(F)(F)F)cc3)n2)c1)C(F)(F)F` [Example 61, C,C,C-Trifluoro-N-(3-{2-[2-(4-trifluoromethoxy-phenyl)-thiazol-4-yl-methoxy]-ethyl}-phenyl)-methanesulfonamide] displayed a melting point of 115 to 116 °C.

`O=S(=O)(Nc1cccc(CCOCc2nc(-c3ccc(F)cc3)sc2Br)c1)C(F)(F)F` [Example 62, N-(3-{2-[5-Bromo-2-(4-fluoro-phenyl)-thiazol-4-ylmethoxy]-ethyl}-phenyl)-C,C,C-trifluoromethanesulfonamide] yielded a melting point of 84 to 85 °C.

In turn, `O=S(=O)(Nc1cccc(CCOCc2nc(-c3ccc(C(F)(F)F)cc3)sc2Cl)c1)C(F)(F)F` [Example 63, N-(3-{2-[5-Chloro-2-(4-trifluoromethyl-phenyl)-thiazol-4-ylmethoxy]-ethyl}-phenyl)-C,C,C-trifluoromethanesulfonamide] registered a melting point of 107 to 109 °C.

The compound `O=S(=O)(Nc1cccc(CCOCc2cccc(-c3ccc(F)cc3)n2)c1)C(F)(F)F` [Example 64, C,C,C-Trifluoro-N-(3-{2-[6-(4-fluoro-phenyl)-pyridin-2-ylmethoxy]-ethyl}-phenyl)-methanesulfonamide] returned a melting point of 71 to 73 °C.

For `O=S(=O)(Nc1cccc(CCOCc2cccc(-c3ccccc3)n2)c1)C(F)(F)F` [Example 65, C,C,C-Trifluoro-N-{3-[2-(6-phenyl-pyridin-2-ylmethoxy)-ethyl]-phenyl}-methane sulfonamide], the melting point is 75 to 77 °C.
